Earlier results as cited in US20200230059A1, “Solid Micronized Melatonin Composition” (Physician's Seal, LLC, priority 2019, published 2020).
Read-outs that look alike come from different tables or passages of the source.

solubility (gastric environment, pH approximately 1 to 3): relatively high
solubility (lower GI tract environment, pH approximately 5.5 to 7): decreases even further
solubility (upper GI tract environment, pH approximately 4.5 to 5.5): decreases
SMILES: COc1ccc2[nH]cc(CCNC(C)=O)c2c1 [Melatonin]
